Test results from the supplement of paper PMC10733146.

Legend:
Assay in all cases: viability relative to DMSO control (fraction); higher = less drug effect (more viable cells)
Settings in all cases: 48 h
[1] = system: primary AML patient cells (S006)
Procedure, shortened: (§1)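 Using 384-well plates with compounds already plated at five concentrations, one well per concentration, 4 × 10^4 primary mononuclear tumour cells were added per well. Cells were Ficoll-isolated from blood or bone marrow or came from processed lymph node, fresh or cryopreserved. They were kept for 48 h at 37 °C and 5% CO2 in RPMI-1640 supplemented with penicillin/streptomycin, L-glutamine and human serum, and viability was read as CellTiter-Glo luminescence relative to the median of 16 inner DMSO wells.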

[2] = system: primary BL patient cells (S005)
Procedure, shortened: as §1

[3] = system: primary ALL patient cells (S048)
Procedure, shortened: as §1

[4] = system: primary AML patient cells (S012)
Procedure, shortened: as §1

[5] = system: primary AML patient cells (S025)
Procedure, shortened: as §1

[6] = system: primary MCL patient cells (S063)
Procedure, shortened: as §1

[7] = system: primary AML patient cells (S056)
Procedure, shortened: as §1

[8] = system: primary AML patient cells (S079)
Procedure, shortened: as §1

[9] = system: primary AML patient cells (S021)
Procedure, shortened: as §1

[10] = system: primary AML patient cells (S002)
Procedure, shortened: as §1

[11] = system: primary MCL patient cells (S053)
Procedure, shortened: as §1

[12] = system: primary AML patient cells (S072)
Procedure, shortened: as §1

[13] = system: primary FL patient cells (S022)
Procedure, shortened: as §1

[14] = system: primary MCL patient cells (S068)
Procedure, shortened: as §1

[15] = system: primary AML patient cells (S017)
Procedure, shortened: as §1

[16] = system: primary CLL patient cells (S043)
Procedure, shortened: as §1

[17] = system: primary T-PLL patient cells (S008)
Procedure, shortened: as §1

[18] = system: primary AML patient cells (S055)
Procedure, shortened: as §1

[19] = system: primary AML patient cells (S009)
Procedure, shortened: as §1

[20] = system: primary AML patient cells (S081)
Procedure, shortened: as §1

Question: What does the source list for `Nc1nc(F)nc2c1ncn2[C@@H]1O[C@H](CO)[C@@H](O)[C@@H]1O` [Fludarabine]?
Answer: viability ([1]; 0.016 µM): 1.02; viability ([1]; 0.08 µM): 0.929; viability ([1]; 0.4 µM): 0.529; viability ([1]; 2 µM): 0.115; viability ([1]; 10 µM): 0.0573; viability ([2]; 0.016 µM): 0.972; viability ([2]; 0.08 µM): 1.18; viability ([2]; 0.4 µM): 0.943; viability ([2]; 2 µM): 0.905; viability ([2]; 10 µM): 1.05; viability ([3]; 0.016 µM): 0.991; viability ([3]; 0.08 µM): 0.881; viability ([3]; 0.4 µM): 0.337; viability ([3]; 2 µM): 0.0558; viability ([3]; 10 µM): 0.028; viability ([4]; 0.016 µM): 1.02; viability ([4]; 0.08 µM): 0.979; viability ([4]; 0.4 µM): 0.987; viability ([4]; 2 µM): 0.921; viability ([4]; 10 µM): 0.753; viability ([5]; 0.016 µM): 1.09; viability ([5]; 0.08 µM): 0.901; viability ([5]; 0.4 µM): 0.506; viability ([5]; 2 µM): 0.275; viability ([5]; 10 µM): 0.169; viability ([6]; 0.016 µM): 1.03; viability ([6]; 0.08 µM): 1; viability ([6]; 0.4 µM): 0.983; viability ([6]; 2 µM): 0.845; viability ([6]; 10 µM): 0.196; viability ([7]; 0.016 µM): 1.3; viability ([7]; 0.08 µM): 0.88; viability ([7]; 0.4 µM): 0.725; viability ([7]; 2 µM): 0.208; viability ([7]; 10 µM): 0.0833; viability ([8]; 0.016 µM): 1.05; viability ([8]; 0.08 µM): 1.01; viability ([8]; 0.4 µM): 0.819; viability ([8]; 2 µM): 0.453; viability ([8]; 10 µM): 0.191; viability ([9]; 0.016 µM): 1.04; viability ([9]; 0.08 µM): 0.882; viability ([9]; 0.4 µM): 0.579; viability ([9]; 2 µM): 0.277; viability ([9]; 10 µM): 0.183; viability ([10]; 0.016 µM): 1.27; viability ([10]; 0.08 µM): 1.07; viability ([10]; 0.4 µM): 0.9; viability ([10]; 2 µM): 0.457; viability ([10]; 10 µM): 0.313; viability ([11]; 0.016 µM): 1.02; viability ([11]; 0.08 µM): 0.928; viability ([11]; 0.4 µM): 0.638; viability ([11]; 2 µM): 0.238; viability ([11]; 10 µM): 0.156; viability ([12]; 0.016 µM): 1.02; viability ([12]; 0.08 µM): 1.08; viability ([12]; 0.4 µM): 0.824; viability ([12]; 2 µM): 0.724; viability ([12]; 10 µM): 0.529; viability ([13]; 0.016 µM): 1.09; viability ([13]; 0.08 µM): 1.01; viability ([13]; 0.4 µM): 0.916; viability ([13]; 2 µM): 0.757; viability ([13]; 10 µM): 0.504; viability ([14]; 0.016 µM): 1.01; viability ([14]; 0.08 µM): 0.961; viability ([14]; 0.4 µM): 0.804; viability ([14]; 2 µM): 0.463; viability ([14]; 10 µM): 0.194; viability ([15]; 0.016 µM): 1.05; viability ([15]; 0.08 µM): 1.03; viability ([15]; 0.4 µM): 1.07; viability ([15]; 2 µM): 0.854; viability ([15]; 10 µM): 0.534; viability ([16]; 0.016 µM): 1.02; viability ([16]; 0.08 µM): 0.982; viability ([16]; 0.4 µM): 0.882; viability ([16]; 2 µM): 0.614; viability ([16]; 10 µM): 0.236; viability ([17]; 0.016 µM): 0.988; viability ([17]; 0.08 µM): 1.02; viability ([17]; 0.4 µM): 0.942; viability ([17]; 2 µM): 0.761; viability ([17]; 10 µM): 0.373; viability ([18]; 0.016 µM): 1.05; viability ([18]; 0.08 µM): 0.976; viability ([18]; 0.4 µM): 0.937; viability ([18]; 2 µM): 0.624; viability ([18]; 10 µM): 0.256; viability ([19]; 0.016 µM): 0.952; viability ([19]; 0.08 µM): 0.86; viability ([19]; 0.4 µM): 0.59; viability ([19]; 2 µM): 0.402; viability ([19]; 10 µM): 0.359; viability ([20]; 0.016 µM): 1.1; viability ([20]; 0.08 µM): 1.05; viability ([20]; 0.4 µM): 1.1; viability ([20]; 2 µM): 1.02; viability ([20]; 10 µM): 0.89

Question: What does the source list for `C/C=C1\NC(=O)[C@H]2CSSCC/C=C/[C@H](CC(=O)N[C@H](C(C)C)C(=O)N2)OC(=O)[C@H](C(C)C)NC1=O` [Romidepsin]?
Answer: viability ([1]; 0.00032 µM): 1; viability ([1]; 0.0016 µM): 0.911; viability ([1]; 0.008 µM): 0.477; viability ([1]; 0.04 µM): 0.127; viability ([1]; 0.2 µM): 0.0886; viability ([2]; 0.00032 µM): 1; viability ([2]; 0.0016 µM): 0.948; viability ([2]; 0.008 µM): 0.63; viability ([2]; 0.04 µM): 0.564; viability ([2]; 0.2 µM): 0.538; viability ([3]; 0.00032 µM): 0.791; viability ([3]; 0.0016 µM): 0.184; viability ([3]; 0.008 µM): 0.0722; viability ([3]; 0.04 µM): 0.0497; viability ([3]; 0.2 µM): 0.0502; viability ([4]; 0.00032 µM): 1.1; viability ([4]; 0.0016 µM): 1.01; viability ([4]; 0.008 µM): 0.722; viability ([4]; 0.04 µM): 0.0806; viability ([4]; 0.2 µM): 0.0665; viability ([5]; 0.00032 µM): 0.889; viability ([5]; 0.0016 µM): 0.812; viability ([5]; 0.008 µM): 0.299; viability ([5]; 0.04 µM): 0.381; viability ([5]; 0.2 µM): 0.441; viability ([6]; 0.00032 µM): 0.923; viability ([6]; 0.0016 µM): 0.968; viability ([6]; 0.008 µM): 0.0338; viability ([6]; 0.04 µM): 0.0187; viability ([6]; 0.2 µM): 0.0209; viability ([7]; 0.00032 µM): 0.924; viability ([7]; 0.0016 µM): 0.89; viability ([7]; 0.008 µM): 0.156; viability ([7]; 0.04 µM): 0.0512; viability ([7]; 0.2 µM): 0.0574; viability ([8]; 0.00032 µM): 0.978; viability ([8]; 0.0016 µM): 0.85; viability ([8]; 0.008 µM): 0.269; viability ([8]; 0.04 µM): 0.31; viability ([8]; 0.2 µM): 0.304; viability ([9]; 0.00032 µM): 0.88; viability ([9]; 0.0016 µM): 0.789; viability ([9]; 0.008 µM): 0.353; viability ([9]; 0.04 µM): 0.269; viability ([9]; 0.2 µM): 0.222; viability ([10]; 0.00032 µM): 1.12; viability ([10]; 0.0016 µM): 0.73; viability ([10]; 0.008 µM): 0.283; viability ([10]; 0.04 µM): 0.265; viability ([10]; 0.2 µM): 0.287; viability ([11]; 0.00032 µM): 0.951; viability ([11]; 0.0016 µM): 0.191; viability ([11]; 0.008 µM): 0.0849; viability ([11]; 0.04 µM): 0.0845; viability ([11]; 0.2 µM): 0.0907; viability ([12]; 0.00032 µM): 0.97; viability ([12]; 0.0016 µM): 0.671; viability ([12]; 0.008 µM): 0.243; viability ([12]; 0.04 µM): 0.192; viability ([12]; 0.2 µM): 0.187; viability ([13]; 0.00032 µM): 0.968; viability ([13]; 0.0016 µM): 0.84; viability ([13]; 0.008 µM): 0.543; viability ([13]; 0.04 µM): 0.263; viability ([13]; 0.2 µM): 0.206; viability ([14]; 0.00032 µM): 0.904; viability ([14]; 0.0016 µM): 0.298; viability ([14]; 0.008 µM): 0.118; viability ([14]; 0.04 µM): 0.0914; viability ([14]; 0.2 µM): 0.0996; viability ([15]; 0.00032 µM): 1.02; viability ([15]; 0.0016 µM): 0.866; viability ([15]; 0.008 µM): 0.29; viability ([15]; 0.04 µM): 0.302; viability ([15]; 0.2 µM): 0.332; viability ([16]; 0.00032 µM): 0.92; viability ([16]; 0.0016 µM): 0.83; viability ([16]; 0.008 µM): 0.369; viability ([16]; 0.04 µM): 0.0933; viability ([16]; 0.2 µM): 0.084; viability ([17]; 0.00032 µM): 1.02; viability ([17]; 0.0016 µM): 0.895; viability ([17]; 0.008 µM): 0.738; viability ([17]; 0.04 µM): 0.772; viability ([17]; 0.2 µM): 0.758; viability ([18]; 0.00032 µM): 0.981; viability ([18]; 0.0016 µM): 0.941; viability ([18]; 0.008 µM): 0.524; viability ([18]; 0.04 µM): 0.145; viability ([18]; 0.2 µM): 0.072; viability ([19]; 0.00032 µM): 1.02; viability ([19]; 0.0016 µM): 0.614; viability ([19]; 0.008 µM): 0.308; viability ([19]; 0.04 µM): 0.24; viability ([19]; 0.2 µM): 0.199; viability ([20]; 0.00032 µM): 0.976; viability ([20]; 0.0016 µM): 0.947; viability ([20]; 0.008 µM): 0.283; viability ([20]; 0.04 µM): 0.0359; viability ([20]; 0.2 µM): 0.0368
